Measurements from the supplement of paper PMC5844555.

Tests used:
Experiment in all cases: 3' UTR reporter interaction score (median-centred robust z-score of log2 firefly/Renilla activity); higher = less repression of the 3' UTR reporter
Conditions in all cases: HEK293T; 48 h
ZEB2 = tested on: ZEB2
Outline: (§1)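 Firefly and Renilla luciferase activities were read 48 h post-transfection in HEK293T cells (10,000/well, 96-well plates). The cells had received 100 ng firefly luc2P reporter bearing the gene's 3' UTR, 20 ng Renilla pRL-TK control and 2.5 pmol miRNA mimic via DharmaFECT Duo. The interaction score, where more negative means interaction, is a per-plate robust z-score (median, median absolute deviation) of the log firefly/Renilla ratio, median-centred per miRNA and averaged over at least two independent screens.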

FBXW7 = tested on: FBXW7
Outline: as §1

PHOX2B = tested on: PHOX2B
Outline: as §1

MYCN = tested on: MYCN
Outline: as §1

PHF6 = tested on: PHF6
Outline: as §1

RB1 = tested on: RB1
Outline: as §1

TP53 = tested on: TP53
Outline: as §1

EZH2 = tested on: EZH2
Outline: as §1

BRCA2 = tested on: BRCA2
Outline: as §1

MYC = tested on: MYC
Outline: as §1

NOTCH1 = tested on: NOTCH1
Outline: as §1

HRAS = tested on: HRAS
Outline: as §1

MYB = tested on: MYB
Outline: as §1

MYT1L = tested on: MYT1L
Outline: as §1

Sequence	3' UTR reporter interaction score (ZEB2)	3' UTR reporter interaction score (FBXW7)	3' UTR reporter interaction score (PHOX2B)	3' UTR reporter interaction score (MYCN)	3' UTR reporter interaction score (PHF6)	3' UTR reporter interaction score (RB1)	3' UTR reporter interaction score (TP53)	3' UTR reporter interaction score (EZH2)	3' UTR reporter interaction score (BRCA2)	3' UTR reporter interaction score (MYC)	3' UTR reporter interaction score (NOTCH1)	3' UTR reporter interaction score (HRAS)	3' UTR reporter interaction score (MYB)	3' UTR reporter interaction score (MYT1L)
GUGAGUCUCUAAGAAAAGAGGA	0.201	1.15	-1.54	-0.777	0.947	-0.543	1.06	-0.0137	0.654	-0.241	0.287	-1.03	-1.86	0.22
UGAGAUGAAGCACUGUAGCUCA	0.313	0.851	-0.89	0.577	-0.896	-0.192	-0.632	-0.134	1.09	0.59	0.298	0.321	0.448	-0.193
UGCCUGGGUCUCUGGCCUGCGCGU	0.387	-2.61	-0.846	-0.0821	0.782	-2.47	0.35	-0.794	-0.375	0.101	0.3	-1.95	0.325	-0.227
CAUCUUACCGGACAGUGCUGGA	-2.11	-0.296	0.65	-0.576	0.881	-0.297	-0.701	0.0963	0.868	-0.0291	0.335	0.319	-1.55	-0.174
CAGCAGCAAUUCAUGUUUUGAA	0.626	-2.64	1.12	-0.622	2.81	0.649	0.52	-0.709	0.886	-0.0621	0.0853	-0.93	-2.05	-4.35
UAGGCAGUGUCAUUAGCUGAUUG	-1.58	-1.11	1.92	-3.63	0.274	-0.567	0.66	-5.52	1.04	-5.22	-2.66	1.22	-2.78	0.837
AACACACCUGGUUAACCUCUUU	0.382	-0.274	0.138	1.21	-2.01	-0.572	0.317	0.419	0.0379	-0.499	-1.72	0.473	-0.0237	0.591
UGGGCGUAUCUGUAUGCUA	2.53	0.752	2.15	0.906	1.09	-0.659	-0.0916	-1.3	-0.638	-0.549	-2.02	-0.235	0.397	0.105
UGUAAACAUCCUACACUCAGCU	-1.14	0.842	-0.561	-0.781	-1.63	0.456	-0.377	0.233	0.276	-0.616	-0.804	1.01	0.789	0.998
CUCUAGAGGGAAGCGCUUUCUGUU	0.37	-0.944	-1.2	-0.278	-0.0745	-0.121	0.361	-0.269	-0.378	0.337	1.16	-0.0223	1.71	0.721
UGAUAUGUUUGAUAUAUUAGGU	-0.629	0.769	0.239	0.278	-0.754	-0.392	0.331	-0.107	-2.64	0.0447	0.183	-0.158	-0.701	0.136
UCGUACCGUGAGUAAUAAUGC	0.34	-0.162	-1.05	0.512	1.63	-1.12	0.516	0.753	0.63	-0.268	-1.54	-0.495	-2.72	-0.417
UUGGUCCCCUUCAACCAGCUGU	-0.135	1	-0.898	0.117	-1.13	-0.063	-1.45	1.28	0.152	0.174	-0.968	1.24	0.254	0.5
UCCUUCAUUCCACCGGAGUCUG	-2.53	-0.512	-0.547	0.466	0.83	0.813	-0.464	0.832	-0.488	1.16	-0.263	-1.28	1.93	1.34
AAUAAUACAUGGUUGAUCUUU	-1.86	-0.364	-0.121	-0.572	1.16	-0.0974	-0.77	0.433	-0.146	0.609	-0.442	-0.598	0.0772	-0.318
AUAAGACGAGCAAAAAGCUUGU	-2.58	0.133	-0.501	-0.0307	-0.375	-1.39	0.501	1.23	2.27	-0.771	-0.743	0.557	-1.19	0.212
GUGGCUGCACUCACUUCCUUC	-0.491	0.899	-0.165	1.8	1.53	1.44	-1.37	0.166	-1.87	0.00108	0.486	-0.434	0.056	1.48

Sequence	3' UTR reporter interaction score (ZEB2)	3' UTR reporter interaction score (FBXW7)	3' UTR reporter interaction score (PHOX2B)	3' UTR reporter interaction score (MYCN)	3' UTR reporter interaction score (PHF6)	3' UTR reporter interaction score (RB1)	3' UTR reporter interaction score (TP53)	3' UTR reporter interaction score (EZH2)	3' UTR reporter interaction score (BRCA2)	3' UTR reporter interaction score (MYC)	3' UTR reporter interaction score (NOTCH1)	3' UTR reporter interaction score (HRAS)	3' UTR reporter interaction score (MYB)	3' UTR reporter interaction score (MYT1L)
UACAGUAUAGAUGAUGUACUAG	0.857	-1.17	1.45	-0.388	0.845	0.00103	0.564	0.0925	-0.483	-0.27	0.141	-0.991	1.2	0.926
UGUCUUGCAGGCCGUCAUGCA	-2.19	0.883	0.814	-0.456	-0.169	1.34	-1.21	-0.168	-0.496	0.266	0.776	1.07	-0.711	0.257
UUAUGGUUUGCCUGGGACUGAG	-0.72	-3.46	0.156	-0.255	-0.769	-0.796	-1.16	0.163	0.104	0.675	-0.409	0.369	1.44	1.06
CAAAGUGCUCAUAGUGCAGGUAG	1.98	1	1.67	-0.62	0.651	0.42	0.0738	-0.533	0.253	-0.364	1.52	0.757	-1.73	-1.37
AACCAGCACCCCAACUUUGGAC	1.09	-7.19	-0.923	0.781	-2.04	-1.29	0.244	1.33	-0.175	0.864	-0.388	0.0381	-1.09	0.0434
UGGAAGACUAGUGAUUUUGUUG	-0.874	-0.892	0.182	0.44	0.207	0.176	-1.48	0.509	-0.32	-0.317	-0.0478	0.856	0.454	-1.31
CGAAUGUUGCUCGGUGAACCCCU	-0.941	0.304	1.32	0.119	-1.07	0.281	-0.241	-0.254	-0.821	0.217	1.32	-0.194	0.287	0.642
UUGGCCACAAUGGGUUAGAAC	0.409	-5.44	0.306	0.113	1.18	0.342	-0.693	-1.06	0.035	0.316	-0.0688	-0.0679	0.316	1.36
GUGCAUUGCUGUUGCAUUGCA	-2.34	-0.35	0.67	0.79	-0.271	-0.687	0.631	0.0384	-0.52	-1.33	0.367	-0.237	-2.09	0.516
AGGACCUGCGGGACAAGAUUCUU	0.526	-0.188	1.33	-0.207	-0.476	0.102	-0.45	-0.425	0.115	-0.0464	0.243	-0.0697	0.35	-0.0205
GUGCCGCCAUCUUUUGAGUGU	-1.72	-3.5	-0.654	0.415	1.8	0.47	0.183	1.03	-0.313	1.02	-0.278	-0.278	0.102	-0.378
UGUCUGCCCGCAUGCCUGCCUCU	-0.366	0.234	-1.69	-1.48	1.55	0.711	-0.199	1.24	0.911	-0.223	-0.629	-2.78	-1.11	0.694
UCUUGGAGUAGGUCAUUGGGUGG	1.13	-2.32	-1.26	-0.819	1.13	-0.403	0.12	0.166	0.0799	0.457	-0.846	1.18	-0.086	-0.548
UUUUGCACCUUUUGGAGUGAA	-4.16	-3.44	-0.86	0.905	0.706	-1.86	0.767	-0.000424	0.467	0.393	1.27	-0.429	1	-0.182
GAGCCAGUUGGACAGGAGC	-0.65	0.107	0.261	0.298	-1.97	-0.775	1	-0.353	-1.34	-0.0272	-0.874	0.00377	0.363	0.521
UGAGGUAGUAGUUUGUACAGU	-1.5	-0.143	0.114	-3.87	-0.221	0.426	0.627	-4.15	0.445	-2.59	0.637	1.06	0.441	0.517
UUCAAGUAAUUCAGGAUAGGUU	0.133	1.51	0.967	0.732	-0.939	-1.95	-0.282	-4.18	0.455	-1.49	1.02	-1.14	1.26	1.44
